The source of these data is patent US9981928B2, “Aryl sulfide derivatives and aryl sulfoxide derivatives as acaricides and insecticides” (BAYER CROPSCIENCE AKTIENGESELLSCHAFT, priority 2013, dated 2018).

For data set [1], the system named is larvae of the mustard beetle (Phaedon cochleariae). In words: Phaedon cochleariae spray test (PHAECO). As to conditions: Chinese cabbage leaf disks; application rate 500 g/ha; after 7 days. In kind it is in vivo. The procedure:
Phaedon cochleariae—Spray Test (PHAECO)
(§1) Solvent: 78.0 parts by weight of acetone
(§2) • 1.5 parts by weight of dimethylformamide Emulsifier: alkylaryl polyglycol ether
(§3) To produce a suitable preparation of active compound, 1 part by weight of active compound is dissolved using the stated parts by weight of solvent and made up with water containing an emulsifier concentration of 1000 ppm until the desired concentration is attained. To produce further test concentrations, the preparation is diluted with emulsifier-containing water.
After 7 days, the efficacy in % is determined. 100% means that all the beetle larvae have been killed; 0% means that no beetle larvae have been killed.

Data set [2] has as its system greenhouse red spider mite (Tetranychus urticae). Nature of the data set: Tetranychus urticae spray test, OP-resistant (TETRUR), bean leaf disks. Type of data set: in vivo. Conditions: bean leaf disks, application rate 500 g/ha, after 6 days; for pest or weed control at 500 g/ha: Tetranychus urticae, foliar, 144 h, read-out: efficacy in %. A digest of the protocol:
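Bean leaf disks carrying all stages of OP-resistant Tetranychus urticae sprayed with compound in acetone/dimethylformamide diluted in emulsifier water. Kill assessed after 6 days as % efficacy, 100% meaning all mites dead.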

A short description of data set [3]: log P determination by HPLC on reversed-phase columns (C 18), analogously to OECD Guideline 117. Type of data set: physicochemical. As to conditions: for logP (HCOOH): LC-MS in the acidic range, pH 2.7, 0.1% aqueous formic acid / acetonitrile; for logP (HCOOH) / logP (neutral): HPLC reversed-phase C 18; for chromatographic logP: reversed-phase C18 HPLC column; for logP (neutral): LC-MS in the neutral range, pH 7.8, 0.001 molar aqueous ammonium hydrogencarbonate / acetonitrile. A digest of the protocol: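 Reversed-phase C18 HPLC per OECD 117 with LC-MS detection and a linear 10→95% acetonitrile gradient. Acidic log P run at pH 2.7 with 0.1% formic acid in both eluents. Neutral log P run at pH 7.8 with 0.001 M aqueous ammonium hydrogencarbonate.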

Data set [4] relates to green peach aphid (Myzus persicae). Nature of the data set: Myzus persicae spray test (MYZUPE). Conditions: Chinese cabbage leaf disks; application rate 500 g/ha; after 6 days. In kind it is in vivo. As for the experimental part: Myzus persicae—Spray Test (MYZUPE)
Solvent: 78 parts by weight of acetone
as §2, §3
Disks of Chinese cabbage leaves (Brassica pekinensis) infested by all stages of the green peach aphid (Myzus persicae) are sprayed with an active compound preparation of the desired concentration.
After 6 days, the efficacy in % is determined. 100% means that all the aphids have been killed; 0% means that none of the aphids have been killed.

Data set [5] concerns caterpillars of the armyworm (Spodoptera frugiperda). Nature of the data set: Spodoptera frugiperda spray test (SPODFR). Conditions: maize leaf disks; application rate 500 g/ha; after 7 days. In kind it is in vivo. The procedure: Spodoptera frugiperda—Spray Test (SPODFR)
as §1, §2, §3
Leaf disks of maize (Zea mays) are sprayed with an active compound preparation of the desired concentration and, after drying, populated with caterpillars of the armyworm (Spodoptera frugiperda).
After 7 days, the efficacy in % is determined. 100% means that all the caterpillars have been killed; 0% means that no caterpillars have been killed.

The subject of data set [6] is cattle ticks (Boophilus microplus). In words: Boophilus microplus injection test (BOOPMI inj). In kind it is in vivo. Conditions: injection into the abdomen; application rate 20 μg/animal; assessed after 7 days. As for the experimental part:
Boophilus microplus—Injection Test (BOOPMI inj)
(§4) Solvent: dimethyl sulfoxide
To produce a suitable preparation of active compound, 10 mg of active compound are mixed with 0.5 ml of solvent and the concentrate is diluted with solvent to the desired concentration.
1 μl of the active compound solution is injected into the abdomen of 5 engorged adult female cattle ticks (Boophilus microplus). The animals are transferred into dishes and kept in a climate-controlled room.
(§5) Efficacy is assessed after 7 days by laying of fertile eggs. Eggs which are not visibly fertile are stored in a climate-controlled cabinet until the larvae hatch after about 42 days. An efficacy of 100% means that none of the ticks has laid any fertile eggs; 0% means that all the eggs are fertile.

Data set [7] deals with cattle ticks (Boophilus microplus) Parkhurst strain, SP-resistant. In words: Boophilus microplus dip test (BOOPMI Dip). As to conditions: engorged adult female ticks dipped; application rate 100 ppm; assessed after 7 days. In kind it is in vivo. As for the experimental part: Boophilus microplus—Dip Test (BOOPMI Dip)
Test animals: cattle ticks (Boophilus microplus) Parkhurst strain, SP-resistant
as §4
10 mg of active compound are dissolved in 0.5 ml of dimethyl sulfoxide. To produce a suitable formulation, the active compound solution is diluted with water to the concentration desired in each case.
This active compound preparation is pipetted into tubes. 8-10 engorged adult female cattle ticks (Boophilus microplus) are transferred into a further tube with holes. The tube is immersed into the active compound preparation, and all the ticks are completely wetted. After the liquid has run out, the ticks are transferred on filter disks into plastic dishes and stored in a climate-controlled room.
as §5

The subject of data set [8] is southern root-knot nematode (Meloidogyne incognita). Nature of the data set: Meloidogyne incognita test (MELGIN). Type of data set: in vivo. Conditions: lettuce in sand; application rate 20 ppm; after 14 days. As for the experimental part:
Meloidogvne incognita test (MELGIN)
Solvent: 125.0 parts by weight of acetone
To produce a suitable preparation of active compound, 1 part by weight of active compound is mixed with the stated amount of solvent and the concentrate is diluted with water to the desired concentration.
Vessels are filled with sand, active compound solution, an egg/larvae suspension of the southern root-knot nematode (Meloidogyne incognita) and lettuce seeds. The lettuce seeds germinate and the plants develop. The galls develop on the roots.
After 14 days, the nematicidal efficacy in % is determined by the formation of galls. 100% means that no galls were found; 0% means that the number of galls on the treated plants corresponds to the untreated control.

For another data set, the system named is Amblyomma hebraeum. In words: Amblyomma hebraeum test (AMBYHE), tick nymph immersion. Type of data set: in vivo. Conditions: tick nymphs immersed for one minute; application rate 100 ppm; after 42 days. The procedure:
Amblyomma hebaraeum Test (AMBYHE)
as §4
To produce a suitable preparation of active compound, 10 mg of active compound are mixed with 0.5 ml of dimethyl sulfoxide, and the concentrate is diluted with water to the desired concentration.
Tick nymphs (Amblyomma hebraeum) are placed into perforated plastic beakers and immersed in the desired concentration for one minute. The ticks are transferred on filter paper into a Petri dish and stored in a climate-controlled cabinet.
After 42 days, the kill in % is determined. 100% means that all of the ticks have been killed; 0% means that none of the ticks have been killed.

[9] abbreviates: acidic range, pH 2.7, 0.1% aqueous formic acid and acetonitrile, read-out: log P[a] / log P(HCOOH).
[10] abbreviates: neutral range, pH 7.8, 0.001 molar aqueous ammonium hydrogencarbonate and acetonitrile, read-out: log P[b] / log P(neutral).

Where two headings read alike, the source gives them in different places.

As to `Cc1cc(F)c(N2C(=O)C(=O)N(CC(F)(F)F)C2=S)cc1[S+]([O-])CC(F)(F)F` (centres unmarked) [Example 190], the efficacy in % in data set [1] came out at 100%; in data set [2] it was 90%. In addition, the “logP (HCOOH)” value in [3] came to 3.03.

The molecule `Cc1cc(F)c(N2C(=O)C(=O)N(C3CCCCC3)C2=O)cc1[S+]([O-])CC(F)(F)F` (centres unmarked) [Example 186, 1-Cyclohexyl-3-{2-fluoro-4-methyl-5-[(2,2,2-trifluoroethyl)sulfinyl]phenyl}imidazolidin-2,4,5-trion] showed an efficacy in % in [1] of 100%. Also, the pest or weed control at 500 g/ha in data set [2] is 100%. Also, the chromatographic logP in data set [3] (setting [9]) turned out to be 3.36; in data set [3] (setting [10]), 3.33.

In data set [4], `Cc1cc(F)c(N2C(=O)OC(C)C2=O)cc1[S+]([O-])CC(F)(F)F` (centres unmarked) [Example 206] showed an efficacy in % of 100%. Besides, the “logP (HCOOH)” value in data set [3] is 2.08.

For `Cc1cc(F)c(-n2[nH]c(=O)n(-c3cccc(Cl)c3)c2=O)cc1SCC(F)(F)F` [Example 157], in [5], the efficacy in % amounted to 100%. Also, in data set [3], the “logP (HCOOH)” value is on record as 3.31 and the “logP (neutral)” value came out at 1.33.

As to `Cc1cc(F)c(N2CC(=O)N(C)C2=O)cc1SCC(F)(F)F` [Example 211], in data set [6], the “efficacy (laying of fertile eggs)” value is 100%. Further, the efficacy in % in data set [1] stood at 83%; in data set [2], 100%. For the same molecule, the “logP (HCOOH)” value in [3] amounted to 2.66.

Regarding `Cc1ccc(-n2c(=O)n(C)c(=O)n2-c2ccc(C)c([S+]([O-])CC(F)(F)F)c2)cc1SCC(F)(F)F` (centres unmarked) [Example 84], the efficacy in % in data set [1] was determined as 100%. In data set [3], the “logP (HCOOH)” value is 3.46 and the “logP (neutral)” value was determined as 3.38.

For the molecule `Cc1ccc(-n2c(=O)n(C(C)C)c(=O)n2C)cc1[S+]([O-])CC(F)(F)F` (centres unmarked) [Example 141], the “efficacy (laying of fertile eggs)” value in data set [7] is given as 90%; in [6], 100%. For the same molecule, the efficacy in % in data set [4] is 100%; in [2], 90%. The “logP (HCOOH)” value in data set [3] came to 2.27. Also, the “logP (neutral)” value in [3] is listed as 2.24.

In data set [1], `Cc1ccc(-n2c(=O)n(C)c(=O)n2Cc2ccccc2)cc1SCC(F)(F)F` [Example 57] had an efficacy in % of 100%. In addition, in [3], the “logP (HCOOH)” value is listed as 3.62 and the “logP (neutral)” value was 3.56.

On to `Cc1cc(F)c(N2C(=O)CN(C)C2=O)cc1SCC(F)(F)F` [Example 200], for which the efficacy in % is 100% in [1], 100% in [5] and 90% in data set [2]. Also, in [3], the “logP (HCOOH)” value is 2.42. In data set [3], the “logP (neutral)” value is listed as 2.33.

As to `Cc1cc(F)c(-n2[nH]c(=O)n(C3CC3)c2=O)cc1SCC(F)(F)F` [Example 207], the efficacy in % in [5] stood at 83%. This molecule also registered an efficacy in % in [2] of 90%. In data set [3], the “logP (HCOOH)” value was 1.57 and the “logP (neutral)” value is given as −0.23.

Turning to `Cc1cc(F)c(N2CCN(C)C2=O)cc1SCC(F)(F)F` [Example 198], in [1], the efficacy in % turned out to be 83%. Besides, the efficacy in % in data set [2] is 100%. For the same molecule, in data set [3], the “logP (HCOOH)” value worked out at 2.79 and the “logP (neutral)” value amounted to 2.75.

Take `Cc1ccc(-n2c(=O)n(C)c(=O)n2CC2CC2)cc1SCC(F)(F)F` [Example 52]: the “nematicidal efficacy in % (formation of galls)” value (“nematicidal efficacy in %” for short) in data set [8] is recorded as 100%. The molecule further returned an efficacy in % in [1] of 100%. This molecule came in with an efficacy in % in data set [2] of 100%. Besides, in [3], the “logP (HCOOH)” value is listed as 3.34 and the “logP (neutral)” value came out at 3.29.

In the data set with Amblyomma hebraeum, `Cc1cc(F)c(-n2c(=O)n(C(C)C)c(=O)n2C)cc1SCC(F)(F)F` [Example 91] showed a kill in % of 100%. Moreover, in [7], the “efficacy (laying of fertile eggs)” value is on record as 100%. Further, in [6], the “efficacy (laying of fertile eggs)” value came out at 100%. Moreover, the efficacy in % in data set [2] amounted to 100%. In addition, in [3], the “logP (HCOOH)” value turned out to be 3.35 and the “logP (neutral)” value is on record as 3.28.

As to `Cc1ccc(-n2c(=O)n(C3CC3)c(=O)n2C)cc1[S+]([O-])CC(F)(F)F` (centres unmarked) [Example 37], the “efficacy (laying of fertile eggs)” value in [6] came to 100%. For the same molecule, the “nematicidal efficacy in %” value in [8] stood at 100%. In addition, the efficacy in % in [2] is on record as 100%. Further, in data set [3], the “logP (HCOOH)” value is 1.89 and the “logP (neutral)” value is on record as 1.87.

For `Cc1cc(F)c(N2C(=O)C(=O)N(C3CCCCC3)C2=O)cc1SCC(F)(F)F` [Example 185, 1-Cyclohexyl-3-{2-fluoro-4-methyl-5-[(2,2,2-trifluoroethyl)sulfanyl]phenyl}imidazolidine-2,4,5-trione], the efficacy in % in [1] amounted to 100%. For the same molecule, the pest or weed control at 500 g/ha in [2] is 90%. For the same molecule, the chromatographic logP in data set [3] (setting [9]) amounted to 4.32; in [3] (setting [10]), 4.27.

In data set [1], `Cc1ccc(-n2c(=O)n(C)c(=O)n2Cc2ccccc2Cl)cc1SCC(F)(F)F` [Example 60] registered an efficacy in % of 83%. In data set [3], the “logP (HCOOH)” value is listed as 3.80 and the “logP (neutral)” value was found to be 3.75.

Regarding `Cc1cc(F)c(N2CC(=O)N(C3CC3)C2=O)cc1[S+]([O-])CC(F)(F)F` (centres unmarked) [Example 209], the “efficacy (laying of fertile eggs)” value in data set [6] turned out to be 100%. For the same molecule, in data set [8], the “nematicidal efficacy in %” value is reported as 90%. Further, the efficacy in % in [2] is recorded as 100%. Also, the “logP (HCOOH)” value in [3] is listed as 1.92.
